{
  "source": "paper PMC8587043",
  "about": "“An Investigation into the Interaction between Double Hydroxide-Based Antioxidant Benzophenone Derivatives and Cyclooxygenase 2” (Molecules, 2021)",
  "type_in_all_cases": "cell-based, human",
  "key": {"[1]": {"tested_on": "EA.hy926 cells", "test": "Protective effect against H2O2-induced oxidative damage, MTT assay", "conditions": "for EC50: protection against H2O2-induced damage (400 µmol·L^−1, 4 h), n = 3, mean ± SD", "description": "Hydrogen peroxide (H2O2), a small molecule and functions as oxidative stress and a second messenger which contributes to cell damage or death, could directly induce inflammation in several cell lines. H2O2-induced cell damage is a commonly used model for antioxidant activity evaluation. […] Thus, the concentration of 400 µmol·L^−1 at 4 h was chosen as the model.\n(§1) Compound SC2 stock solutions were prepared in DMSO. The stock solutions were diluted with FBS free DMEM to different target concentrations (DMSO concentrations ≤ 0.5% v:v). Cells (100 μL, 2 × 10^5 cells∙mL^−1) were seeded on 96-well plates and cultured for 24 h. The medium was then replaced with fresh media containing H2O2 with different concentrations (0, 100, 200, 300, 400, 500, and 600 μmol·L^−1 in FBS free DMEM) and compound SC2 (50, 40, 30, 20, 10 µmol·L^−1), which were transferred to the incubator and cultured for additional time (2, 4, and 6 h). The medium was then replaced with 100 μL of FBS free DMEM and MTT (10 μL, 5 mg·mL^−1 in PBS) and after 4 h the medium was replaced with DMSO (100 μL). A microplate reader (SpectraMaxPlus384, Molecular Devices, United States) was used to record the absorbance at 490 nm for each well of the plates. Cell viability was measured via MTT assay. Survival rate (%) = (Asample group/Acontrol group) × 100%.\nCells (100 μL, 2 × 10^5 cells·mL^−1) were seeded in 96-well plates for 24 h. Cells were treated with different groups and cell viability was measured via MTT assay. The protection rates to oxidative damage were determined and EC50 values were calculated. The protection rates to cells were calculated using the following formula: Protection rate (%) = (Apretreatment group − Amodel group)/(Acontrol group − Amodel group) × 100%."}, "[2]": {"tested_on": "EA.hy926 cells", "test": "Cytotoxicity of compound SC2, MTT assay", "description": "The cytotoxicity of compound SC2 on EA.hy926 cells was detected by 3-(4,5-dimethyl-2-thiazolyl)-2,5-diphenyl-2-H-tetrazolium bromide (MTT) assay.\nas §1"}, "[3]": {"tested_on": "EA.hy926 cells", "test": "LDH, MDA, ROS and SOD in H2O2-treated cells", "conditions": "pretreated 24 h, then 400 μmol·L^−1 H2O2 for 4 h; p < 0.01", "description": "In the course of oxidative stress, the balance between oxidation and antioxidant activity of cells was disturbed, and the levels of ROS, malondialdehyde (MDA) and lactate dehydrogenase (LDH) increased, while the activity of superoxide dismutase (SOD) enzyme in cells decreased.\nCells were dispensed into 24-well plate wells for 24 h and pretreated with target compound SC2 (5, 0.1, 0.05 µmol·L^−1) or the positive controls (10 µmol·L^−1) for 24 h, followed by exposure to 400 μmol·L^−1 H2O2 for 4 h. The cells were collected and the activities of LDH, MDA, SOD and ROS were determined according to the kits’ instructions."}},
  "data": [
    {"smiles": "CCCCc1ccc(C(=O)c2c(Br)cc(O)c(O)c2O)cc1", "note": "[DB2]", "values": [
      {"measurement": "EC50", "setting": "[1]; Homo sapiens, EA.hy 926, 4 h", "value": "1360 ± 463", "unit": "nM"}
    ]},
    {"smiles": "CC(C)(C)c1ccc(C(=O)c2c(Cl)cc(O)c(O)c2O)cc1", "note": "[SC2]", "values": [
      {"measurement": "protection from H2O2 induced cell damage", "setting": "[1]; 5 µmol·L^−1 compound, four pre-chosen H2O2 treatments", "value": "protects the cells from H2O2 induced cell damage"},
      {"measurement": "EC50", "setting": "[1]; Homo sapiens, EA.hy 926, 4 h", "value": "6.25 ± 0.415", "unit": "nM"},
      {"measurement": "EC50", "setting": "[1]", "value": "6.25 ± 0.415", "unit": "nM"},
      {"measurement": "cell survival rate compared with control group", "setting": "[2]; concentrations less than 30 µmol·L^−1", "value": "not significantly different"},
      {"measurement": "effect on cells at concentration used in cell-based experiments", "setting": "[2]; less than 10 µmol·L^−1", "value": "harmless to cells"},
      {"measurement": "LDH level compared with model group", "setting": "[3]", "value": "significantly reduced"},
      {"measurement": "MDA level compared with model group", "setting": "[3]", "value": "significantly reduced"},
      {"measurement": "ROS level compared with model group", "setting": "[3]", "value": "significantly reduced"},
      {"measurement": "SOD activity compared with model group", "setting": "[3]", "value": "significantly increased"}
    ]},
    {"smiles": "CC(C)Cc1ccc(C(=O)c2c(Br)cc(O)c(O)c2O)cc1", "note": "[YB2]", "values": [
      {"measurement": "EC50", "setting": "[1]; Homo sapiens, EA.hy 926, 4 h", "value": "418 ± 24.6", "unit": "nM"},
      {"measurement": "protection rate compared with positive controls (fenofibrate and quereetin)", "setting": "[1]; statistical comparison", "value": "no significant difference"}
    ]}
  ]
}
